Key:
[1] = biological target: KRAS G12D (Homo sapiens (Human), UniProt P01116, G12D); experiment: KRAS G12D LoEnz Biochemical Assay, BODIPY-GDP Exchange TR-FRET (SOS1-mediated nucleotide exchange); conditions: read-out: KRas (G12D) GDP HTRF IC50
[2] = biological target: KRAS WT (Homo sapiens (Human), UniProt P01116); experiment: KRAS WT Biochemical Assay, BODIPY-GDP Exchange TR-FRET (Example 502; 0.06 nM KRAS WT, 15 nM GDP, 300 nM SOS1, 120-minute incubation); conditions: read-out: KRas HTRF IC50
Chain of KRAS WT (P01116-2 other isoform, or with tags, fused parts or gaps): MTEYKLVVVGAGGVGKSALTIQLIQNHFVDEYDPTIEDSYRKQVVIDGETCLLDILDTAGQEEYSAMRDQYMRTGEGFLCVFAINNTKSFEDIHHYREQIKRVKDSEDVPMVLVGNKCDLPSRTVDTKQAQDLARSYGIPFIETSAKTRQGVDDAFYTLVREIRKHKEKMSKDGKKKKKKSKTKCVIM
Method: Example 502: KRAS WT Biochemical Assay, BODIPY-GDP Exchange TR-FRET. Biochemical compound potencies are assessed by evaluating inhibition of SOS1-mediated nucleotide exchange in KRAS WT. In this assay, the SOS1-promoted exchange of fluorescently-labeled GDP (BOPIDY-GDP) is monitored by time-resolved fluorescence resonance energy transfer (TR-FRET). Compounds solubilized in DMSO are dispensed as concentration series into 384-well white assay plates. A preformed complex of 0.06 nM biotin-tagged recombinant human KRAS WT, 15 nM GDP and 0.06 nM terbium-labeled streptavidin (CisBIO) prepared in 10 uL/well assay buffer (20 mM HEPES, pH 7.5, 50 mM NaCl, 10 mM MgCl2, 0.01% Tween-20 and 1 mM dithiothreitol) is added and allowed to incubate for 10-minutes at room temperature. The reaction is initiated with the addition of 5 uL 300 nM recombinant human SOS1 and 300 nM BODIPY-GDP in assay buffer. After a 120-minute incubation, the fluorescence is measured with excitation at 337 nm and emission at 490 and 520 nm. The TR-FRET ratio is determined as the fluorescence at 520 nm divided by the fluorescence at 490 nm multiplied by 10,000. The results are normalized to percent inhibition based on control samples: DMSO (0% inhibition) and control compound at a concentration that inhibits completely (100% inhibition). The normalized TR-FRET results are plotted against compound concentration, and the data are fit to a 4-parameter Hill equation to determine the IC50 values.

Chain of KRAS G12D (P01116-2 other isoform, or with tags, fused parts or gaps G12D): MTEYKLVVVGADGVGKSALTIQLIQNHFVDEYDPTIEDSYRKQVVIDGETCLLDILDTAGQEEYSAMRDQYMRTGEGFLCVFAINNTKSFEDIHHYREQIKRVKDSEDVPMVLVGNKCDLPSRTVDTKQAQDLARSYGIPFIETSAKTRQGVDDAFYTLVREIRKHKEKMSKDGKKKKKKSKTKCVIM

SMILES	IC50 [1] [nM]	IC50 [2] [nM]
Cc1c(F)c(N)cc(-c2nc3c4c(nc(OC[C@@]56CCCN5C/C(=C\F)C6)nc4c2F)N2C[C@H]4CC[C@H](N4)[C@H]2[C@H](C)O3)c1C(F)(F)F [Compound 64, 2-fluoro-5-((5S,5aS,6S,9R)-1-fluoro-12-(((S,Z)-2-(fluoromethylene)tetrahydro-1H-pyrrolizin-7a(5H)-yl)methoxy)-5-methyl-5a,6,7,8,9,10-hexahydro-5H-4-oxa-3,10a,11,13,14-pentaaza-6,9-methanonaphtho[1,8-ab]heptalen-2-yl)-3-methyl-4-(trifluoromethyl)aniline]	0.12	0.738
Cc1c(F)c(N)cc(-c2nc3c4c(nc(OC[C@@H]5CC(F)(F)CN5C)nc4c2F)N2C[C@H]4CC[C@H](N4)[C@H]2[C@H](C)O3)c1C(F)(F)F [Compound 65, 5-((5S,5aS,6S,9R)-12-(((S)-4,4-Difluoro-1-methylpyrrolidin-2-yl)methoxy)-1-fluoro-5-methyl-5a,6,7,8,9,10-hexahydro-5H-4-oxa-3,10a,11,13,14-pentaaza-6,9-methanonaphtho[1,8-ab]heptalen-2-yl)-2-fluoro-3-methyl-4-(trifluoromethyl)aniline]	1.72	377
Cc1c(F)c(N)cc(-c2nc3c4c(nc(OC[C@H]5CC(F)(F)CN5C)nc4c2F)N2C[C@H]4CC[C@H](N4)[C@H]2[C@H](C)O3)c1C(F)(F)F [Compound 66, 5-((5S,5aS,6S,9R)-12-(((R)-4,4-difluoro-1-methylpyrrolidin-2-yl)methoxy)-1-fluoro-5-methyl-5a,6,7,8,9,10-hexahydro-5H-4-oxa-3,10a,11,13,14-pentaaza-6,9-methanonaphtho[1,8-ab]heptalen-2-yl)-2-fluoro-3-methyl-4-(trifluoromethyl)aniline]	2.29	274
Cc1cc(N)cc(-c2nc3c4c(nc(OC[C@@H]5CC[C@H]6COCCN65)nc4c2F)N2C[C@H]4CC[C@H](N4)[C@H]2[C@H](C)O3)c1C(F)(F)F [Compound 67, 3-((5S,5aS,6S,9R)-1-Fuoro-1-(((6S,8aS)-hexahydro-1H-pyrrolo[2,1-c][1,4]oxazin-6-yl)methoxy)-5-methyl-5a,6,7,8,9,10-hexahydro-5H-4-oxa-3,10a,11,13,14-pentaaza-6,9-methanonaphtho[1,8-ab]heptalen-2-yl)-5-methyl-4-(trifluoromethyl)aniline]	0.17	7.53
Cc1cc(N)cc(-c2nc3c4c(nc(OC[C@@]56CCCN5CC5(CC5(F)F)C6)nc4c2F)N2C[C@H]4CC[C@H](N4)[C@H]2[C@H](C)O3)c1C(F)(F)F (stereo partly drawn) [Compound 68, 3-((5S,5aS,6S,9R)-12-(((7a′S)-2,2-Difluorodihydro-1′H,3′H-spiro[cyclopropane-1,2′-pyrrolizin]-7a′(5′H)-yl)methoxy)-1-fluoro-5-methyl-5a,6,7,8,9,10-hexahydro-5H-4-oxa-3,10a,11,13,14-pentaaza[6,9]methanonaphtho[1,8-ab]heptalen-2-yl)-5-methyl-4-(trifluoromethyl)aniline]	0.07	0.112
Cc1cc(N)cc(-c2nc3c4c(nc(OC[C@]56CCCN5CC(F)(F)C6)nc4c2F)N2C[C@H]4CC[C@H](N4)[C@H]2[C@H](C)O3)c1C(F)(F)F [Compound 69, 3-((5S,5aS,6S,9R)-12-(((R)-2,2-Difluorotetrahydro-1H-pyrrolizin-7a(5H)-yl)methoxy)-1-fluoro-5-methyl-5a,6,7,8,9,10-hexahydro-5H-4-oxa-3,10a,11,13,14-pentaaza-6,9-methanonaphtho[1,8-ab]heptalen-2-yl)-5-methyl-4-(trifluoromethyl)aniline]	0.31	40.9
C[C@@H]1Oc2nc(-c3cc(N)c(F)cc3C(F)(F)F)c(F)c3nc(OC[C@@H]4CC[C@H]5COCCN54)nc(c23)N2C[C@H]3CC[C@H](N3)[C@@H]12 [Compound 70, 2-Fluoro-5-((5S,5aS,6S,9R)-1-fluoro-12-(((6S,8aS)-hexahydro-1H-pyrrolo[2,1-c][1,4]oxazin-6-yl)methoxy)-5-methyl-5a,6,7,8,9,10-hexahydro-5H-4-oxa-3,10a,11,13,14-pentaaza-6,9-methanonaphtho[1,8-ab]heptalen-2-yl)-4-(trifluoromethyl)aniline]	0.71	169
C[C@@H]1Oc2nc(-c3cc(N)ccc3C(F)(F)F)c(F)c3nc(OC[C@@]45CCCN4C[C@H](F)C5)nc(c23)N2C[C@H]3CC[C@H](N3)[C@@H]12 [Compound 72, 3-((5S,5aS,6S,9R)-1-Fluoro-12-(((2R,7aS)-2-fluorotetrahydro-1H-pyrrolizin-7a(5H)-yl)methoxy)-5-methyl-5a,6,7,8,9,10-hexahydro-5H-4-oxa-3,10a,11,13,14-pentaaza-6,9-methanonaphtho[1,8-ab]heptalen-2-yl)-4-(trifluoromethyl)aniline]	0.28	12.9
C[C@@H]1Oc2nc(-c3cc(N)c(F)cc3C(C)(F)F)c(F)c3nc(OC[C@@]45CCCN4C[C@H](F)C5)nc(c23)N2C[C@H]3CC[C@H](N3)[C@@H]12 [Compound 73, 4-(1,1-difluoroethyl)-2-fluoro-5-((5S,5aS,6S,9R)-1-fluoro-12-(((2R,7aS)-2-fluorotetrahydro-1H-pyrrolizin-7a(5H)-yl)methoxy)-5-methyl-5a,6,7,8,9,10-hexahydro-5H-4-oxa-3,10a,11,13,14-pentaaza-6,9-methanonaphtho[1,8-ab]heptalen-2-yl)aniline]	2.6	36.3
Cc1cc(N)cc(-c2nc3c4c(nc(OC[C@@]56CCCN5C[C@H](F)C6)nc4c2F)N2C[C@H]4CC[C@H](N4)[C@H]2[C@H](C)O3)c1Cl [Compound 74, 4-Chloro-3-((5S,5aS,6S,9R)-1-fluoro-12-(((2R,7aS)-2-fluorotetrahydro-1H-pyrrolizin-7a(5H)-yl)methoxy)-5-methyl-5a,6,7,8,9,10-hexahydro-5H-4-oxa-3,10a,11,13,14-pentaaza-6,9-methanonaphtho[1,8-ab]heptalen-2-yl)-5-methylaniline]	0.33	30.8
Cc1c(F)c(N)cc(-c2nc3c4c(nc(OC[C@@]56CCCN5C[C@H](F)C6)nc4c2F)N2C[C@H]4CC[C@H](N4)[C@H]2[C@H](C)O3)c1CC(F)F [Compound 75, 4-(2,2-Difluoroethyl)-2-fluoro-5-((5S,5aS,6S,9R)-1-fluoro-12-(((2R,7aS)-2-fluorotetrahydro-1H-pyrrolizin-7a(5H)-yl)methoxy)-5-methyl-5a,6,7,8,9,10-hexahydro-5H-4-oxa-3,10a,11,13,14-pentaaza-6,9-methanonaphtho[1,8-ab]heptalen-2-yl)-3-methylaniline]	0.13	11.8
Cc1c(F)c(N)cc(-c2nc3c4c(nc(OC[C@@]56CCCN5C[C@H](F)C6)nc4c2F)N2C[C@H]4CC[C@H](N4)[C@H]2[C@H](C)O3)c1Cl [Compound 76, 4-Chloro-2-fluoro-5-((5S,5aS,6S,9R)-1-fluoro-12-(((2R,7aS)-2-fluorotetrahydro-1H-pyrrolizin-7a(5H)-yl)methoxy)-5-methyl-5a,6,7,8,9,10-hexahydro-5H-4-oxa-3,10a,11,13,14-pentaaza-6,9-methanonaphtho[1,8-ab]heptalen-2-yl)-3-methylaniline]	0.13	14.3
C[C@@H]1Oc2nc(-c3cc(N)cc(F)c3C(F)(F)F)c(F)c3nc(OC[C@@H]4CC[C@H]5COCCN54)nc(c23)N2C[C@H]3CC[C@H](N3)[C@@H]12 [Compound 77, 3-Fluoro-5-((5S,5aS,6S,9R)-1-fluoro-12-(((6S,8aS)-hexahydro-1H-pyrrolo[2,1-c][1,4]oxazin-6-yl)methoxy)-5-methyl-5a,6,7,8,9,10-hexahydro-5H-4-oxa-3,10a,11,13,14-pentaaza-6,9-methanonaphtho[1,8-ab]heptalen-2-yl)-4-(trifluoromethyl)aniline]	0.24	21.1
C[C@@H]1Oc2nc(-c3cc(O)cc4ccc(F)c(F)c34)c(F)c3nc(OC[C@@]45CCCN4C[C@H](F)C5)nc(c23)N2C[C@H]3CC[C@H](N3)[C@@H]12 [Compound 82, 5,6-Difluoro-4-((5S,5aS,6S,9aR)-1-fluoro-12-(((2R,7aS)-2-fluorotetrahydro-1H-pyrrolizin-7a(5H)-yl)methoxy)-5-methyl-5a,6,7,8,9,10-hexahydro-5H-4-oxa-3,10a,11,13,14-pentaaza-6,9-methanonaphtho[1,8-ab]heptalen-2-yl)naphthalen-2-ol]	360	23500
C[C@@H]1Oc2nc(-c3cc(N)cc4c3CCC4)c(F)c3nc(OC[C@@]45CCCN4C[C@H](F)C5)nc(c23)N2C[C@H]3CC[C@H](N3)[C@@H]12 [Compound 83, 7-((5S,5aS,6S,9R)-1-Fluoro-12-(((2R,7aS)-2-fluorotetrahydro-1H-pyrrolizin-7a(5H)-yl)methoxy)-5-methyl-5a,6,7,8,9,10-hexahydro-5H-4-oxa-3,10a,11,13,14-pentaaza-6,9-methanonaphtho[1,8-ab]heptalen-2-yl)-2,3-dihydro-1H-inden-5-amine]	1.15	123
